This is an account of results in patent US20240360247A1, “COMPOSITIONS AND METHODS FOR TREATMENT OF CANCER” (Johns Hopkins University, priority 2021, published 2024).

For test [1], the system named is HCT-116 cells. Description: Effect of D-PDMP on cell proliferation (3H-thymidine incorporation). The format is cell-based, human. The protocol:
HCT-116 cells were seeded (10^4/well) in 96-well sterile plastic plates, and grown for 24 h in complete medium, with 10% fetal calf serum. The media was then replaced with 2% serum-containing media (100 μL) plus ^3H-thymidine ([…]), with and without D-PDMP. After another 24 h incubation, incorporation of ^3H-thymidine into DNA was measured by scintillation spectrometry.
On the technique in general: Dividing cells build labelled thymidine or BrdU into new DNA.

The target in another test is T1, UGCG (Homo sapiens, UniProt Q16739).
T1 construct: endogenous in cells; host or cells: HCT-116
T1 sequence (Q16739 1-394): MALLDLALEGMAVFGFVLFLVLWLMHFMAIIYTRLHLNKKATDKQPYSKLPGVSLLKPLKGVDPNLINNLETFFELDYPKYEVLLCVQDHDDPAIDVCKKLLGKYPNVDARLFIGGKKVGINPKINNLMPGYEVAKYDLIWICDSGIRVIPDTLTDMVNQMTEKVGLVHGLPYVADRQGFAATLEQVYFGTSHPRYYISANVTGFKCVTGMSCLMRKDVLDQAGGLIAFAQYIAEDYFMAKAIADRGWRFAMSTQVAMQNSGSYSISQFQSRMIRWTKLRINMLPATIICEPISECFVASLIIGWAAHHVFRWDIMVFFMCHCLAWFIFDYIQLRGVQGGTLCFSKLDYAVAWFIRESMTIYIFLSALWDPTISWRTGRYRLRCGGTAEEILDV
Description: Effect of D-PDMP on IHC localization of glycosyltransferases in human CRC cells (UGCG). Format: cell-based. The following applies: HCT-116, 10p M D-PDMP, 24 h, vs control. The method, then:
(§1) HCT-116 cells were seeded (10^4) onto sterilized glass coverslips, which were then placed in 6-well sterile plastic trays and grown for 24 h in complete media. Next, the media was replaced with 2 mL of 2% serum-containing media, plus […] D-PDMP. After incubation for 24 and 96 h, the media was removed, and cells were fixed with ethanol, washed, incubated with antibody against β-1,4-GalT-V or UGCG, and photographed.

The next test has as its target T2, β-1,4-GalT-V (Homo sapiens, UniProt O43286).
T2 construct: endogenous in cells; host or cells: HCT-116
T2 sequence (O43286 1-388): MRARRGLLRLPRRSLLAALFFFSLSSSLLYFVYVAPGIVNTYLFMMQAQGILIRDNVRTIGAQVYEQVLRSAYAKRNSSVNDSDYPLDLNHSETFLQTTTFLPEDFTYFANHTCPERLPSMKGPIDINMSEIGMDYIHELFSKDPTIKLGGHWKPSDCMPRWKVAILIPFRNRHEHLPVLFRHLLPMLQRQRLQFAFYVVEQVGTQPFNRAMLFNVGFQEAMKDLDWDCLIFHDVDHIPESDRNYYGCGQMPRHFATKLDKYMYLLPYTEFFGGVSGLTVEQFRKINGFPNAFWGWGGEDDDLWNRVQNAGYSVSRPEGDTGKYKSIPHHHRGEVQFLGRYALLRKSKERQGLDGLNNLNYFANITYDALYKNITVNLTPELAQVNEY
Briefly: Effect of D-PDMP on IHC localization of glycosyltransferases in human CRC cells (β-1,4-GalT-V). Format: cell-based. The following applies: HCT-116, D-PDMP, 24 and 96 h, vs controls. The method, then: as §1

The subject of test [2] is HCT-116 cells. Briefly: LC-MS sphingolipid levels in HCT-116 cells. Format: cell-based, human. The following applies: D-PDMP 10 μM, 24 h, vs control. The protocol:
HCT-116 cells were seeded ([…]) onto sterilized (100-mm^2) plastic Petri dishes in 10 mL of medium for 24 h. Media was then changed to 2% serum-containing media, with and without D-PDMP (10 μM). After 24 h, media was removed, and total lipids were extracted, using hexane-isopropanol (3:2, by volume) in the presence of sphingolipid internal standards, and subject to MS. […] Data represent averages±SEm, N=3 biological replicates for control and 10 μM D-PDMP in (FIGS. 4A-4H), and the unpaired t-tested was used for statistical analysis.*P≤0.05,**P≤0.01]\
Sphingolipid levels in human CRC tissue and in human cultured CRC cells (HCT-116) were measured by LC-MS, as described previously (23). Visibly normal and CRC tissues (50 mg) were homogenized in chloroform-methanol (2:1), in the presence of sphingolipid internal standards. […] HCT-116 cells were grown in 100 mm^2 sterile, plastic Petri dishes. Lipid extracts were subject to LC-MS, as described (24, 25).

Test [3] relates to human colorectal cancer cells (HCT-116). Description: [89Zr] GalT-V antibody binding and internalization (gamma counter). Format: cell-based. The following applies: HCT-116 pre-incubated with D-PDMP 20 uM. The protocol:
Cell cultures were incubated with increasing concentrations of [^89Zr] GalT-V antibody, washed and radioactivity was measured in an automated gamma counter (1282 Compu-gamma CS, Pharmacia/LKB Nuclear, Inc.).
Cell cultures were incubated with increasing concentrations of [^89Zr] GalT-V antibody, washed and radioactivity was measured in a gamma counter. […] GalT-V antibody binding in human coronary arterial endothelial cells (HCAEC) and human colorectal cancer cells (HCT-116) after 2-hour incubation at 37° C.
Cells were pre-incubated with and without an inhibitor of GalT-V, D-PDMP (20 uM), followed by the measurement of binding and internalization of [^89Zr] GalT-V antibody. […] GalT-V antibody (n=3, p**=0.0079).
Cells were incubated in the presence of excess unlabeled (cold, 50 ug/mL) GalT-V antibody as well as [^89Zr] GalT-V Ab. […] (n=3, p****=<0.0001). Results are shown in FIG. 24 which depicts specificity of binding and internalization of [^89Zr] GalT-V antibody in human colorectal cancer cells (HCT-116).

Another test concerns renal cancer. To be noted: mouse, in vivo; cited from earlier work.
The next test has as its system human endothelial cells. To be noted: cited from earlier work.

Take `CCCCCCCCCC(=O)N[C@H](CN1CCOCC1)[C@H](O)c1ccccc1` [D-PDMP, D-threo-1-phenyl-2-decanoylamino-3-morpholino-1-propanol]: the “proliferation of HCT-116 cells” value in the test on HCT-116 cells [1] (24 and 96 h, compared to control cells) is “dose- and time-dependent (FIGS. 3A, 3B) decrease in proliferation”. In addition, the “maximal effective dose (decrease in proliferation)” value with HCT-116 cells [1] (HCT-116, 24 and 96 h) stood at 20 µM. On UGCG, the UGCG immunofluorescence entry is on record as “No difference”. For the same compound, the GalT-V fluorescence entry at β-1,4-GalT-V was “reduced GalT-V fluorescence”. In addition, in the test with HCT-116 cells [2], the “level of Cer” value was “reduced levels”, the “level of DHCer” value is listed as “reduced levels”, the “level of DHLacCer” value is “reduced levels” and the level of dihexosylceramide result was “reduced levels”. Further, in the test on HCT-116 cells [2], the “level of dihydroGalCer/dihydroGlcCer” value is given as “reduced levels” and the level of monohexosylceramides entry is reported as “reduced levels”. The “effect on binding and internalization of [89Zr] GalT-V antibody” value in test [3] is “reduced the binding and internalization”. Besides, in the test with renal cancer, the GalT-V mass entry was “markedly reduced” and the tumor volume entry is listed as “markedly reduced tumor volume”. Besides, the angiogenesis result with human endothelial cells is recorded as “reduced angiogenesis”.
